These compounds were tested against T1, KIF5B-RET mutant form V804M in HEK293 cells (Homo sapiens, UniProt P07949, V804M) (assay: RET cell assay (In-Cell Western, phospho-RET Y1062), V804M). Conditions: HEK293, doxycycline-induced KIF5B-RET V804M, 1 hr compound treatment; read-out: EC50, inhibition of intracellular autophosphorylation of RET at tyrosine 1062, V804M cells.
T1 construct: expressed in transfected cells; host or cells: HEK293; the other entry of the earlier key: KIF5B (P33176, Kinesin-1 heavy chain)
T1 sequence (P07949 713-1063 V804M limits assumed): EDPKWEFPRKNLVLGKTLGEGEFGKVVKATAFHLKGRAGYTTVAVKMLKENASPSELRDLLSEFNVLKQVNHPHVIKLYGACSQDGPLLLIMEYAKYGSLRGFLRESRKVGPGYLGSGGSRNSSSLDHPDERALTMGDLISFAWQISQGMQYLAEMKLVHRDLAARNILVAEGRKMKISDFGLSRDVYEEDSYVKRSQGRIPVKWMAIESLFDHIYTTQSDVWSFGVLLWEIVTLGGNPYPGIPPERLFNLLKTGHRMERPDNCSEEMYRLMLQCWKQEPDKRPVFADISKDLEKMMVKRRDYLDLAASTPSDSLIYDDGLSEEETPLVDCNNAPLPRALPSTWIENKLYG
Format: cell-based
Method: Compounds of formulas (I), (II), and (III) are screened for their ability to inhibit the intracellular autophosphorylation of RET at tyrosine 1062 as detected by In-Cell Western. HEK293 cells containing a doxycycline-inducible plasmid for inducible expression of KIF5B-RET WT and RET mutant forms V804M and G810S are seeded at 25,000 cells/well into black poly-D-lysine pre-coated 384-well plates (Corning, Catalog No. 356697). Expression of KIF5B-RET is induced with doxycycline at 1 μg/mL and cells are incubated at 37° C. overnight. Compounds are prepared in a threefold serial dilution in DMSO before further diluting 1:100 in media prior to the addition to the cells (0.1% final DMSO concentration). Compound treatment is performed for 1 hr at 37° C. followed by fixation of cells with 4% formaldehyde for 20 min at RT and cell permeabilisation with ice-cold MeOH for 10 min at RT. Cells are incubated with Intercept® blocking buffer (Li—COR, Catalogue No. 927-70010) for 1 hr at RT. Incubation with primary antibodies against human phospho-RET (Y1062) (R&D, Catalogue No. AF5009, 1/250 dilution) and human glyceraldehyde-3-phosphate dehydrogenase (clone 6C5, Merck, Catalog No. MAB374, 1/1000 dilution) are performed overnight at 4° C. Incubation with secondary antibodies IRDye® 800CW goat anti-rabbit IgG (Li—COR, Catalogue No. 926-32211, 1/1000 dilution) and IRDye® 680CW goat anti-mouse IgG (Li—COR, Catalogue No. 926-68070, 1/1000 dilution) are performed for 1 hr at RT. All antibody dilutions are done in Intercept® blocking buffer containing 0.05% Tween20. After washing cells with PBS-T (Cell Signaling technology, Catalogue No. 9809), the images are acquired on a Li—COR Odyssey LCx at 700 and 800 nm. Percent of DMSO control is calculated with 100% signal referring to control conditions containing no compound (0.4% DMSO only) and 0% signal represented by conditions containing control compound. The % of DMSO control values are fit to a 4 parameter logistic curve, and the determined EC50 value is defined as the estimated concentration of inhibitor at the inflexion point of the fitted curve.

SMILES	EC50 [nM]
CC(C(=O)Nc1cc(CC(C)(C)C)no1)c1ccc(-c2nn(C(C)C)c(N)c2C(N)=O)cc1 (single isomer, unassigned; isomer 1) [Example 1, 5-Amino-3-[4-(1-[[3-(2,2-dimethylpropyl)-1,2-oxazol-5-yl]carbamoyl]ethyl)phenyl]-1-isopropylpyrazole-4-carboxamide, Isomer 1]	< 100
CCC(C)(C)c1cc(NC(=O)C(C)c2ccc(-c3nn(C(C)C)c(N)c3C(N)=O)cc2)on1 (single isomer, unassigned; isomer 1) [Example 15, 5-Amino-1-isopropyl-3-[4-(1-[[3-(2-methylbutan-2-yl)-1,2-oxazol-5-yl]carbamoyl]ethyl)phenyl]pyrazole-4-carboxamide, Isomer 1]	< 100
CC(C(=O)Nc1cc(C(C)(C)C(F)(F)F)no1)c1ccc(-c2nn(C(C)C)c(N)c2C(N)=O)cc1 (single isomer, unassigned; isomer 1) [Example 17, 5-Amino-1-isopropyl-3-[4-(1-[[3-(1,1,1-trifluoro-2-methylpropan-2-yl)-1,2-oxazol-5-yl]carbamoyl]ethyl)phenyl]pyrazole-4-carboxamide, Isomer 1]	< 100
CC(C(=O)Nc1cc(C2(C)CC2)no1)c1ccc(-c2nn(C(C)C)c(N)c2C(N)=O)cc1 (single isomer, unassigned; isomer 1) [Example 35, 5-Amino-1-isopropyl-3-[4-(1-[[3-(1-methylcyclopropyl)-1,2-oxazol-5-yl]carbamoyl]ethyl)phenyl]pyrazole-4-carboxamide, Isomer 1]	< 100
CC(C(=O)Nc1cc(-c2ccc(Cl)cc2Cl)no1)c1ccc(-c2nn(C(C)C)c(N)c2C(N)=O)cc1 (single isomer, unassigned; isomer 1) [Example 45, 5-Amino-3-[4-(1-[[3-(2,4-dichlorophenyl)-1,2-oxazol-5-yl]carbamoyl]ethyl)phenyl]-1-isopropylpyrazole-4-carboxamide, Isomer 1]	< 100
CC(C(=O)Nc1cc(C(C)(C)C(F)(F)F)on1)c1ccc(-c2nn(C(C)C)c(N)c2C(N)=O)cc1 (single isomer, unassigned; isomer 1) [Example 81, 5-Amino-1-isopropyl-3-[4-(1-[[5-(1,1,1-trifluoro-2-methylpropan-2-yl)-1,2-oxazol-3-yl]carbamoyl]ethyl)phenyl]pyrazole-4-carboxamide, Isomer 1]	< 100
CC(C(=O)Nc1cc(C2CC(C)(C)C2)no1)c1ccc(-c2nn(C(C)C)c(N)c2C(N)=O)cc1 (single isomer, unassigned; isomer 1) [Example 98, 5-Amino-3-[4-[2-[[3-(3,3-dimethylcyclobutyl)isoxazol-5-yl]amino]-1-methyl-2-oxo-ethyl]phenyl]-1-isopropyl-pyrazole-4-carboxamide, Isomer 1]	< 100
CCC(C)(C)c1cc(NC(=O)C(C)c2ccc(-c3nn(C(C)C)c(N)c3C(N)=O)cc2)no1 (single isomer, unassigned; isomer 2) [Example 52, 5-Amino-1-isopropyl-3-[4-(1-[[5-(2-methylbutan-2-yl)-1,2-oxazol-3-yl]carbamoyl]ethyl)phenyl]pyrazole-4-carboxamide, Isomer 2]	< 100
CC(C(=O)Nc1cc(C(C)(C)C(F)(F)F)on1)c1ccc(-c2nn(C(C)C)c(N)c2C(N)=O)nc1 (single isomer, unassigned; isomer 2) [Example 64, 5-Amino-1-isopropyl-3-[5-(1-[[5-(1,1,1-trifluoro-yl)-1,2-oxazol-3-2-methylpropan-2-yl]carbamoyl]ethyl)pyridin-2-yl]pyrazole-4-carboxamide, Isomer 2]	< 100
CCC(C)(C)c1cc(NC(=O)C(C)c2ccc(-c3nn(C(C)C)c(N)c3C(N)=O)nc2)no1 (single isomer, unassigned; isomer 2) [Example 66, 5-Amino-1-isopropyl-3-[5-(1-[[5-(2-methylbutan-2-yl)-1,2-oxazol-3-yl]carbamoyl]ethyl)pyridin-2-yl]pyrazole-4-carboxamide, Isomer 2]	< 100
CC(C(=O)Nc1cc(C(C)(C)CC(F)(F)F)on1)c1ccc(-c2nn(C(C)C)c(N)c2C(N)=O)nc1 (single isomer, unassigned; isomer 2) [Example 68, 5-Amino-1-isopropyl-3-(5-(1-oxo-1-((5-(4,4,4-trifluoro-2-methylbutan-2-yl)isoxazol-3-yl)amino)propan-2-yl)pyridin-2-yl)-1H-pyrazole-4-carboxamide, Isomer 2]	< 100
CC(C(=O)Nc1cc(C(C)(C)C(C)(F)F)on1)c1ccc(-c2nn(C(C)C)c(N)c2C(N)=O)nc1 (single isomer, unassigned; isomer 2) [Example 70, 5-Amino-3-[5-(1-[[5-(3,3-difluoro-2-methylbutan-2-yl)-1,2-oxazol-3-yl]carbamoyl]ethyl)pyridin-2-yl]-1-isopropylpyrazole-4-carboxamide, Isomer 2]	< 100
CC(C(=O)Nc1cc(C(C)(C)C(C)(F)F)on1)c1ccc(-c2nn(C(C)C)c(N)c2C(N)=O)cc1 (single isomer, unassigned; isomer 2) [Example 76, 5-Amino-3-[4-(1-[[5-(3,3-difluoro-2-methylbutan-2-yl)-1,2-oxazol-3-yl]carbamoyl]ethyl)phenyl]-1-isopropylpyrazole-4-carboxamide, Isomer 2]	< 100
CC(C(=O)Nc1cc(C(C)(C)C)sn1)c1ccc(-c2nn(C(C)C)c(N)c2C(N)=O)cc1 (single isomer, unassigned; isomer 2) [Example 80, 5-Amino-3-(4-[1-[(5-tert-butyl-1,2-thiazol-3-yl)carbamoyl]ethyl]phenyl)-1-isopropylpyrazole-4-carboxamide, isomer 2]	< 100
CCC(C)(C)c1cc(NC(=O)C(C)c2ccc(-c3nn(C(C)C)c(N)c3C(N)=O)cn2)on1 (single isomer, unassigned; isomer 2) [Example 84, 5-Amino-1-isopropyl-3-[6-[2-[[3-(1,1-dimethylpropyl)isoxazol-5-yl]amino]-1-methyl-2-oxo-ethyl]-3-pyridyl]pyrazole-4-carboxamide, Isomer 2]	< 100
CC(C(=O)Nc1cc(C(C)(C)C(F)(F)F)no1)c1ccc(-c2nn(C(C)C)c(N)c2C(N)=O)cn1 (single isomer, unassigned; isomer 2) [Example 90, 5-Amino-1-isopropyl-3-[6-[1-methyl-2-oxo-2-[[3-(2,2,2-trifluoro-1,1-dimethyl-ethyl)isoxazol-5-yl]amino]ethyl]-3-pyridyl]pyrazole-4-carboxamide, Isomer 2]	< 100
CC(C(=O)Nc1cc(-c2ccc(Cl)cc2Cl)no1)c1ccc(-c2nn(C(C)C)c(N)c2C(N)=O)cn1 (single isomer, unassigned; isomer 2) [Example 94, 5-Amino-1-isopropyl-3-[6-[2-[[3-(2,4-dichlorophenyl)isoxazol-5-yl]amino]-1-methyl-2-oxo-ethyl]-3-pyridyl]pyrazole-4-carboxamide, Isomer 2]	< 100
